Test results reported in patent US20140005163A1 (NOVARTIS AG, priority 2010, published 2014).

Assays:
[1] = biological target: T1, PI3K beta (Homo sapiens, UniProt P42338); assay: PI3K beta kinase assay (Kinase-Glo luminescence); type: biochemical
T1 construct: for the full-length p110-b subunit are generated and fused by overlapping PCR; p85(iSH2) fusion partner (see partner chain) (N); His tag (C); made in house; host or cells: baculovirus; Tn5 (Trichoplusia ni) or TiniPro insect cells
Procedure, shortened: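 Residual ATP after a 60 min room-temperature reaction is quantified by Kinase-Glo luminescence. Enzyme: 25 nM BV-949 (p85 iSH2–linker–full-length p110β); substrates 1 μM ATP, 10 μg/mL PI; buffer Tris pH 7.5, MgCl2, NaCl, CHAPS, DTT. Eight concentrations per compound, four-parameter logistic IC50.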

[2] = tested on: PKB Ser473 phosphorylation in Rat1-myr-HA-p110 alpha cells; assay: Reverse protein array assay, PKB Ser473 phosphorylation in Rat1-myr-p110 alpha cells; type: cell-based; conditions: 0.5 h, pAkt Ser473, 30 minutes compound incubation, read-out: p-PKB IC50
Procedure, shortened: (§1)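 Rat1 cells expressing myristoylated HA-tagged p110 alpha, beta or delta were plated for at least 20 h, then exposed to 8-step serial compound dilutions (0.2% DMSO final) for 30 min at 37 °C. Lysates were spotted at four dilutions on protein microarrays, and relative fluorescence intensity of phospho-Ser473 PKB was calculated.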

[3] = tested on: PKB Ser473 phosphorylation in Rat1-myr-HA-p110 beta cells; assay: Reverse protein array assay, PKB Ser473 phosphorylation in Rat1-myr-p110 beta cells; type: cell-based; conditions: 0.5 h, pAkt Ser473, 30 minutes incubation, read-out: p-PKB IC50
Procedure, shortened: as §1

[4] = tested on: S6 Ribosomal Protein phosphorylation Ser235/236 in TSC1 null mouse embryo fibroblast (MEF) cells; assay: Reverse protein array assay, S6 Ribosomal Protein phosphorylation Ser235/236 in TSC1 null MEF cells; type: cell-based; conditions: 1 h, pS6 ribosomal protein Ser235/236, 60 minutes incubation, read-out: p-S6 IC50
Procedure, shortened: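 TSC1−/− MEFs, seeded and held ≥20 h at 37 °C/5% CO2, were exposed to 8-step serial compound dilutions (0.02% DMSO final; DMSO vehicle control) for 60 min at 37 °C. Cells were then lysed on ice for 10 min and lysates spotted onto reverse protein array chips.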

T1 sequence (P42338 with tags, fused parts or gaps limits assumed): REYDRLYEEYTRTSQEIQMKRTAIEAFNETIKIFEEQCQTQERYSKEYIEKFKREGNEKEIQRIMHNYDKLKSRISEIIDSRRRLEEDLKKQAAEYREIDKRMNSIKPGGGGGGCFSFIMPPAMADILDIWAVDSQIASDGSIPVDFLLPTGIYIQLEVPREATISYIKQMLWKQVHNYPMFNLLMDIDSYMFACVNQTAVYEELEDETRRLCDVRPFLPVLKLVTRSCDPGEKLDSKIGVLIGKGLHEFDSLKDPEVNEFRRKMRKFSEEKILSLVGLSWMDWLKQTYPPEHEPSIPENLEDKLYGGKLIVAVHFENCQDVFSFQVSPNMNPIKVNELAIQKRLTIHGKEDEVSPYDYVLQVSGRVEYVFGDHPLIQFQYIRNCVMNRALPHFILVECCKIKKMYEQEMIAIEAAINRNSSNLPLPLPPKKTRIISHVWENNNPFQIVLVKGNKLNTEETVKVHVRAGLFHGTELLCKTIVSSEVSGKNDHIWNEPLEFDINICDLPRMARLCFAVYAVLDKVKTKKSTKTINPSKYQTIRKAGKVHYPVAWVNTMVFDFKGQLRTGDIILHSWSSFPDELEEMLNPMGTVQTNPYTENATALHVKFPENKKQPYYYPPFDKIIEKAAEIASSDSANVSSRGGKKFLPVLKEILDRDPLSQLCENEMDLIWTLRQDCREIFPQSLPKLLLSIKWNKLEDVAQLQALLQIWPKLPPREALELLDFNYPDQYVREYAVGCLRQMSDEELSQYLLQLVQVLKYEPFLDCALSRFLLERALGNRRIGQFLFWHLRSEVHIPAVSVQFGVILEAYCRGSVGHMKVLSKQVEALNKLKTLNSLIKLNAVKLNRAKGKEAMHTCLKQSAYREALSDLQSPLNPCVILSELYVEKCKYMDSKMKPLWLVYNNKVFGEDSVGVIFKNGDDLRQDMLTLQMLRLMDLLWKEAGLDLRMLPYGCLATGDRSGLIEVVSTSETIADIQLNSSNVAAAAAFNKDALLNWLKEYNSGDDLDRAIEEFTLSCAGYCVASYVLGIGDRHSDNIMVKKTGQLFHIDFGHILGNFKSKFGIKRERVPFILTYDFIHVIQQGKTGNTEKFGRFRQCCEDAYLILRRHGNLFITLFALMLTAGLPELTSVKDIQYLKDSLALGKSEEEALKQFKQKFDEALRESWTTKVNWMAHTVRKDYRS

Row | IC50 [1] | IC50 [2] | IC50 [3] | Structure (SMILES) | IC50 [4]
1 | 42 nM | < 5 nM | 32 nM | CNc1cncc(-c2ccc3ncc4c(c3c2)n(-c2cn(C(C)C)nc2C)c(=O)n4C)c1 [Example 180.2, 1-(1-Isopropyl-3-methyl-1H-pyrazol-4-yl)-3-methyl-8-(5-methylamino-pyridin-3-yl)-1,3-dihydro-imidazo[4,5-c]quinolin-2-one] | 17 nM
2 | 22 nM | < 5 nM | < 5 nM | CCNc1cc(-c2ccc3ncc4c(c3c2)n(-c2cn(C)nc2Cl)c(=O)n4C)cnc1C [Example 87.2, 1-(3-Chloro-1-methyl-1H-pyrazol-4-yl)-8-(5-ethylamino-6-methyl-pyridin-3-yl)-3-methyl-1,3-dihydro-imidazo[4,5-c]quinolin-2-one] | 1 nM
3 | 10 nM | < 5 nM | < 5 nM | CNc1cc(-c2ccc3ncc4c(c3c2)n(-c2cn(C)nc2C)c(=O)n4C)cnc1C [Example 163, 1-(1,3-Dimethyl-1H-pyrazol-4-yl)-3-methyl-8-(6-methyl-5-methylamino-pyridin-3-yl)-1,3-dihydro-imidazo[4,5-c]quinolin-2-one] | 2 nM
4 | 8 nM | < 5 nM | < 5 nM | CNc1cc(-c2ccc3ncc4c(c3c2)n(-c2cn(C)nc2Cl)c(=O)n4C)cnc1CO [Example 158.3, 1-(3-Chloro-1-methyl-1H-pyrazol-4-yl)-8-(6-hydroxymethyl-5-methylamino-pyridin-3-yl)-3-methyl-1,3-dihydro-imidazo[4,5-c]quinolin-2-one] | < 0.5 nM
5 | 104 nM | 10 nM | 13 nM | COCc1ccc(-c2ccc3ncc4c(c3c2)n(-c2cn(C)nc2Cl)c(=O)n4C)cn1 [Example 203, 1-(3-Chloro-1-methyl-1H-pyrazol-4-yl)-8-(6-methoxymethyl-pyridin-3-yl)-3-methyl-1,3-dihydro-imidazo[4,5-c]quinolin-2-one] | 22 nM
6 | 17 nM | 5 nM | 7 nM | CCNc1cc(-c2ccc3ncc4c(c3c2)n(-c2cn(CC)nc2C)c(=O)n4C)cnc1CO [Example 155.2, 8-(5-Ethylamino-6-hydroxymethyl-pyridin-3-yl)-1-(1-ethyl-3-methyl-1H-pyrazol-4-yl)-3-methyl-1,3-dihydro-imidazo[4,5-c]quinolin-2-one] | 1 nM
7 | 178 nM | 27 nM | 58 nM | CCn1cc(-n2c(=O)n(C)c3cnc4ccc(-c5cnc(COC)c(OC(C)C)c5)cc4c32)c(C)n1 [Example 191.2, 1-(1-Ethyl-3-methyl-1H-pyrazol-4-yl)-8-(5-isopropoxy-6-methoxymethyl-pyridin-3-yl)-3-methyl-1,3-dihydro-imidazo[4,5-c]quinolin-2-one] | 5 nM
8 | 25 nM | 6 nM | 11 nM | CCN(C)c1cc(-c2ccc3ncc4c(c3c2)n(-c2cn(C)nc2C)c(=O)n4C)cnc1C [Example 165, 1-(1,3-Dimethyl-1H-pyrazol-4-yl)-8-[5-(ethyl-methyl-amino)-6-methyl-pyridin-3-yl]-3-methyl-1,3-dihydro-imidazo[4,5-c]quinolin-2-one] | 1 nM
9 | 103 nM | 77 nM | 77 nM | CCOc1cc(-c2ccc3ncc4c(c3c2)n(-c2cn(C(C)C)nc2C)c(=O)n4C)cnc1COC [Example 197.2, 8-(5-Ethoxy-6-methoxymethyl-pyridin-3-yl)-1-(1-isopropyl-3-methyl-1H-pyrazol-4-yl)-3-methyl-1,3-dihydro-imidazo[4,5-c]quinolin-2-one] | 7 nM
10 | 130 nM | 18 nM | 21 nM | Cc1nn(C)cc1-n1c(=O)n(C)c2cnc3ccc(-c4cncc(N5CCC5)c4)cc3c21 [Example 179, 8-(5-Azetidin-1-yl-pyridin-3-yl)-1-(1,3-dimethyl-1H-pyrazol-4-yl)-3-methyl-1,3-dihydro-imidazo[4,5-c]quinolin-2-one] | 10 nM
11 | 140 nM | 12 nM | 14 nM | COC(=O)c1ccc(-c2ccc3ncc4c(c3c2)n(-c2cn(C)nc2C)c(=O)n4C)cn1 [Example 100, 5-[1-(1,3-Dimethyl-1H-pyrazol-4-yl)-3-methyl-2-oxo-2,3-dihydro-1H-imidazo[4,5-c]quinolin-8-yl]-pyridine-2-carboxylic acid methyl ester] | 4 nM
12 | 91 nM | 28 nM | 38 nM | CCn1cc(-n2c(=O)n(C)c3cnc4ccc(-c5ccc(OC)nc5)cc4c32)c(C)n1 [Example 2.7, 1-(1-Ethyl-3-methyl-1H-pyrazol-4-yl)-8-(6-methoxy-pyridin-3-yl)-3-methyl-1,3-dihydro-imidazo[4,5-c]quinolin-2-one] | 6 nM
13 | 162 nM | 730 nM | 386 nM | CCn1c(=O)n(-c2cn(C)nc2C)c2c3cc(-c4cncc(N)c4)ccc3ncc21 [Example 245, 8-(5-Amino-pyridin-3-yl)-1-(1,3-dimethyl-1H-pyrazol-4-yl)-3-ethyl-1,3-dihydro-imidazo[4,5-c]quinolin-2-one] | 43 nM
14 | 477 nM | 296 nM | 766 nM | CCOc1cc(-c2ccc3ncc4c(c3c2)n(-c2c(C)nn(CC(=O)N(C)C)c2C)c(=O)n4C)cnc1C [Example 85.3, 2-{4-[8-(5-Ethoxy-6-methyl-pyridin-3-yl)-3-methyl-2-oxo-2,3-dihydro-imidazo[4,5-c]quinolin-1-yl]-3,5-dimethyl-pyrazol-1-yl}-N,N-dimethyl-acetamide] | 111 nM
15 | 787 nM | 7 nM | 8 nM | Cc1nn(C)cc1-n1c(=O)n(C)c2cnc3ccc(-c4ccc(N5CCC5)nc4)cc3c21 [Example 5.1, 8-(6-Azetidin-1-yl-pyridin-3-yl)-1-(1,3-dimethyl-1H-pyrazol-4-yl)-3-methyl-1,3-dihydro-imidazo[4,5-c]quinolin-2-one] | 10 nM
16 | 101 nM | 16 nM | 23 nM | COc1ccc(-c2ccc3ncc4c(c3c2)n(-c2cn(C(C)C)nc2C)c(=O)n4C)cc1OC [Example 1.5, 8-(3,4-Dimethoxy-phenyl)-1-(1-isopropyl-3-methyl-1H-pyrazol-4-yl)-3-methyl-1,3-dihydro-imidazo[4,5-c]quinolin-2-one] | < 5 nM
17 | 274 nM | 20 nM | 49 nM | Cc1nn(C)cc1-n1c(=O)n(C)c2cnc3ccc(-c4cncc(N(C)C)c4)cc3c21 [Example 178, 8-(5-Dimethylamino-pyridin-3-yl)-1-(1,3-dimethyl-1H-pyrazol-4-yl)-3-methyl-1,3-dihydro-imidazo[4,5-c]quinolin-2-one] | 2 nM
18 | 385 nM | 10 nM | 19 nM | Cc1nn(C(C)C)cc1-n1c(=O)n(C)c2cnc3ccc(-c4cnc(N)c(F)c4)cc3c21 [Example 142.3, 8-(6-Amino-5-fluoro-pyridin-3-yl)-1-(1-isopropyl-3-methyl-1H-pyrazol-4-yl)-3-methyl-1,3-dihydro-imidazo[4,5-c]quinolin-2-one] | 1 nM
19 | 213 nM | 22 nM | 17 nM | Cc1nn(C)cc1-n1c(=O)n(C)c2cnc3ccc(-c4ccc(N(C)C)nc4)cc3c21 [Example 4.5, 8-(6-Dimethylamino-pyridin-3-yl)-1-(1,3-dimethyl-1H-pyrazol-4-yl)-3-methyl-1,3-dihydro-imidazo[4,5-c]quinolin-2-one] | 13 nM
20 | 802 nM | 141 nM | 265 nM | Cc1nn(C)cc1-n1c(=O)n(C)c2cnc3ccc(-c4ccc(N5CCNCC5)nc4)cc3c21 [Example 126, 1-(1,3-Dimethyl-1H-pyrazol-4-yl)-3-methyl-8-(6-piperazin-1-yl-pyridin-3-yl)-1,3-dihydro-imidazo[4,5-c]quinolin-2-one] | 5.33 nM
21 | 7 nM | 18 nM | 55 nM | CCN1C(=O)OCc2ncc(-c3ccc4ncc5c(c4c3)n(-c3cn(C)nc3C)c(=O)n5C)cc21 [Example 237, 1-(1,3-Dimethyl-1H-pyrazol-4-yl)-8-(1-ethyl-2-oxo-1,4-dihydro-2H-pyrido[3,2-d][1,3]oxazin-7-yl)-3-methyl-1,3-dihydro-imidazo[4,5-c]quinolin-2-one] | 6 nM
22 | 130 nM | 26 nM | 18 nM | Cc1nn(C)cc1-n1c(=O)n(C)c2cnc3ccc(-c4ccc(C(N)=O)nc4)cc3c21 [Example 14, 5-[1-(1,3-Dimethyl-1H-pyrazol-4-yl)-3-methyl-2-oxo-2,3-dihydro-1H-imidazo[4,5-c]quinolin-8-yl]-pyridine-2-carboxylic acid amide] | 123 nM
